This note sets out measurements from PubChem BioAssay AID624254 (Broad Institute, 2012).

Molecules are shown by their SMILES. Active and inactive are the calls of the source. How the calls were made is not given here.

This assay can be described thus: Luciferase light induction in v cholerae bh1651, agonist dose response, confirmatory (AID 624254). The following applies: V. cholerae BH1651 luxOD47E, luciferase light induction, 6 h; at 50 µM (top of the series).
Turning to `CCOC(=O)C1=C(C)NC(SC)=NC1c1ccc(OC)cc1` (stereo not drawn), the “activation (light increase)” value is “inactive”. Under `N#Cc1ccccc1NC(=O)CNc1ccccc1N1CCCCC1` stands “inactive”; under `CCn1c(CC(=O)Nc2cccc(Cl)c2Cl)nnc1SCCOc1ccc(OC)cc1`, “inactive”.

Take `Cc1cc2c(ncn2C)c(NS(=O)(=O)c2cc(Cl)ccc2Cl)c1C`: the “activation (light increase)” value is “inactive”.

For `COC(=O)C1CCN(C(=O)CN(C)Cc2ccc(C(C)(C)C)cc2)CC1`, the “activation (light increase)” value is “inactive”. For the compound `Cc1noc(C)c1NC(=O)Nc1cccc2c1O[C@H](CN(C)S(=O)(=O)c1ccccc1)[C@@H](C)CN([C@H](C)CO)C2=O`, the “activation (light increase)” value is “inactive”. The result for `Clc1ccc(-c2cc(COc3ccc4ccccc4c3)no2)cc1` reads “inactive”. With `COc1ccc2c(c1OC)C(=O)N(c1nccs1)C2`, the “activation (light increase)” value was “inactive”. As to `Cc1ccc(Oc2ccc(Cl)cc2NC(=O)c2cnccn2)cc1`, the “activation (light increase)” value was “inactive”. The result for `CC1(C)NC(=O)N(CCOCCOc2ccc3ccccc3c2Br)C1=O` reads “inactive”; that for `CN(C)C(=O)CCSc1nnc(-c2ccco2)o1`, “inactive”. As for `CCOC(=O)c1c(-c2ccccc2)csc1NC(=O)c1nn(CC)cc1Br`, the “activation (light increase)” value was “inactive”. Under `O=C(COc1cccc(Cl)c1)Nc1ccccc1N1CCCCC1` stands “inactive”.

On to `CCN1CCN(C(=O)c2ccc(COc3ccc(Cl)cc3)o2)CC1`, for which the “activation (light increase)” value is “inactive”. On to `CCCN1CCN(C(=O)CCCNC(=O)Cn2cnc3sc(C)c(C)c3c2=O)CC1`, for which the “activation (light increase)” value is “inactive”.

Regarding `CCN(CC)S(=O)(=O)c1cccc(C(=O)OCC(=O)C23CC4CC(CC(C4)C2)C3)c1`, the “activation (light increase)” value is “inactive”. Under `COc1ccccc1NC(=O)COc1ccc2c(c1)OCO2` stands “inactive”; under `Cc1ccc(C(=O)COc2cc(C)nc3nncn23)cc1`, “inactive”; under `O=C(Nc1nnc(-c2ccc(Br)cc2)o1)c1cccc(N2C(=O)CCC2=O)c1`, “inactive”. The result for `CCc1nnc(NC(=O)C2CC(=O)N(c3ccc(C)cc3)C2)s1` (stereo not drawn) reads “inactive”. The result for `COc1ccc(NC(=O)COc2cccc3c2CCNC3=O)cc1` reads “inactive”.

Take `CC(C)CC(=O)Nc1ccccc1N1CCN(C(=O)c2ccccc2)CC1`: the “activation (light increase)” value is “inactive”.

Consider `CCc1sc(N(C(=O)Cc2ccccc2)c2cccc(F)c2)nc1-c1ccc(C)cc1`, for which the “activation (light increase)” value is “inactive”. Regarding `CCOc1ccc(CNc2nnnn2C)cc1`, the “activation (light increase)” value is “inactive”.

Turning to `C[C@H]1CN([C@@H](C)CO)C(=O)c2cccc(NC(=O)Nc3ccc4c(c3)OCO4)c2O[C@H]1CN(C)S(=O)(=O)c1ccccc1`, the “activation (light increase)” value is “inactive”. The result for `C[C@H]1CN([C@@H](C)CO)C(=O)c2cccc(NC(=O)C3CC3)c2O[C@H]1CN(C)S(=O)(=O)c1cccs1` reads “inactive”. Under `COc1ccc(OC)c(NC(=O)COC(=O)c2cc3c(s2)CCC3)c1` stands “inactive”.

For `CCN(CC)c1nc(-c2ccccc2)cc(C(F)(F)F)c1C#N`, the “activation (light increase)” value was “inactive”. With `Cc1ccc2nc(SCc3nnc(-c4ccccc4Br)o3)[nH]c2c1`, the “activation (light increase)” value is “inactive”. The result for `C[C@H](CO)N1C[C@H](C)[C@@H](CN(C)S(=O)(=O)c2ccc(F)cc2)Oc2c(NC(=O)Nc3ccc4c(c3)OCO4)cccc2C1=O` reads “inactive”.

For `Cc1ncc(S(=O)(=O)c2ccccc2)c(-c2ccc(Cl)cc2Cl)n1`, the “activation (light increase)” value is “inactive”. Under `COc1cc(NC(=O)CN2C(=O)NC(c3ccccc3)(c3ccccc3)C2=O)cc(OC)c1` stands “inactive”; under `COCc1nnc(NS(=O)(=O)c2ccc(Br)cc2)s1`, “inactive”.

For the compound `CCOC(=O)c1cnc(SCC(=O)OCC(=O)NC2CCS(=O)(=O)C2)nc1N` (stereo not drawn), the “activation (light increase)” value is “inactive”. Take `Cc1nnc(NC(=O)c2cccc(S(=O)(=O)N3CCc4ccccc43)c2)s1`: the “activation (light increase)” value is “inactive”. Under `S=C(c1ccc(N2CCOCC2)cc1)N1CCCCC1` stands “inactive”; under `O=c1ncn(-c2cccc(Cl)c2)c2ccccc12`, “inactive”; under `O=C(NCCOc1ccc(Cl)cc1)c1ccco1`, “inactive”. With `CC(=O)N1CCC(=O)N(C(C)C)c2ccccc21`, the “activation (light increase)” value was “inactive”. Under `CC(C)CC(=O)N1CCN(Cc2ccccc2Br)CC1` stands “inactive”; under `COCCNC(=O)CN1CCN(C(c2ccccc2)c2ccccc2)CC1`, “inactive”; under `COC(=O)c1ccc(-c2nc3cc(Cl)c(N)cc3s2)cc1`, “inactive”. The result for `O=C(NCCC(=O)N1CCN(c2ccc(F)cc2)CC1)c1ccco1` reads “inactive”.
